Experimental data as given in patent US7494991B2, “Rifamycin analogs and uses thereof” (ActivBiotics Pharma, LLC, priority 2003, dated 2009).
Converted amounts (≈) assume the structure as drawn.

What was measured:
S. pneumo. = test: MIC assay, S. pneumo.; type: cell-based, S. pneumoniae
H. flu = test: MIC assay, H. flu; type: cell-based, H. influenza
E. faecalis = test: MIC assay, E. faecalis; type: cell-based
E. coli = test: MIC assay, E. coli; type: cell-based
C. trachomatis = test: MIC assay, C. trachomatis; type: cell-based
S. aureus = test: MIC assay, S. aureus; type: cell-based

`CO[C@H]1/C=C/O[C@@]2(C)Oc3c(C)c(O)c4c(=O)c(c5oc6c7c(cc(O)c6nc-5c4c3C2=O)N(C)CCN7C)NC(=O)/C(C)=C\C=C\[C@H](C)[C@H](O)[C@@H](C)[C@@H](O)[C@@H](C)[C@H](OC(C)=O)[C@@H]1C` [Compound 1] was tested, and the “MIC (μg/mL) S. pneumo.” value (S. pneumo.) was 0.00012 µg/mL (≈ 0.136 nM), the “MIC (μg/mL) H. flu” value (H. flu) was 1 µg/mL (≈ 1130 nM) and the “MIC (μg/mL) E. faecalis” value (E. faecalis) was 1 µg/mL (≈ 1130 nM). The “MIC (μg/mL) E. coli” value (E. coli) was 8 µg/mL (≈ 9040 nM), the “MIC (μg/mL) C. trachomatis” value (C. trachomatis) was 6.4e-05 µg/mL (≈ 0.0723 nM) and the “MIC (μg/mL) S. aureus” value (S. aureus) was 0.008 µg/mL (≈ 9.04 nM).

`CO[C@H]1/C=C/O[C@@]2(C)Oc3c(C)c(O)c4c(=O)c(c5oc6c7c(cc(O)c6nc-5c4c3C2=O)N(C)CCN7C)NC(=O)/C(C)=C\C=C\[C@H](C)[C@H](O)[C@@H](C)[C@@H](O)[C@@H](C)[C@H](O)[C@@H]1C` [Compound 2] was tested, and the “MIC (μg/mL) S. pneumo.” value (S. pneumo.) was 0.06 µg/mL (≈ 71.2 nM), the “MIC (μg/mL) H. flu” value (H. flu) was 2 µg/mL (≈ 2370 nM) and the “MIC (μg/mL) E. faecalis” value (E. faecalis) was 1 µg/mL (≈ 1190 nM). For the same compound, the “MIC (μg/mL) E. coli” value (E. coli) was 8 µg/mL (≈ 9490 nM), the “MIC (μg/mL) C. trachomatis” value (C. trachomatis) was 0.001 µg/mL (≈ 1.19 nM) and the “MIC (μg/mL) S. aureus” value (S. aureus) was 0.5 µg/mL (≈ 593 nM).

In the case of `CO[C@H]1/C=C/O[C@@]2(C)Oc3c(C)c(O)c4c(=O)c(c5oc6c7c(cc(O)c6nc-5c4c3C2=O)N(C)CCCN7C)NC(=O)/C(C)=C\C=C\[C@H](C)[C@H](O)[C@@H](C)[C@@H](O)[C@@H](C)[C@H](OC(C)=O)[C@@H]1C` [Compound 3], the “MIC (μg/mL) S. pneumo.” value (S. pneumo.) is reported as 0.008 µg/mL (≈ 8.9 nM), the “MIC (μg/mL) H. flu” value (H. flu) is reported as 2 µg/mL (≈ 2220 nM) and the “MIC (μg/mL) E. faecalis” value (E. faecalis) is reported as 4 µg/mL (≈ 4450 nM). For the same compound, the “MIC (μg/mL) E. coli” value (E. coli) was >8 µg/mL, the “MIC (μg/mL) C. trachomatis” value (C. trachomatis) was 6.4e-05 µg/mL (≈ 0.0712 nM) and the “MIC (μg/mL) S. aureus” value (S. aureus) was 0.06 µg/mL (≈ 66.7 nM).

With `CO[C@H]1/C=C/O[C@@]2(C)Oc3c(C)c(O)c4c(=O)c(c5oc6c7c(cc(O)c6nc-5c4c3C2=O)N(C)CCCN7C)NC(=O)/C(C)=C\C=C\[C@H](C)[C@H](O)[C@@H](C)[C@@H](O)[C@@H](C)[C@H](O)[C@@H]1C` [Compound 4] the “MIC (μg/mL) S. pneumo.” value (S. pneumo.) was 0.00012 µg/mL (≈ 0.14 nM), the “MIC (μg/mL) H. flu” value (H. flu) was 2 µg/mL (≈ 2330 nM) and the “MIC (μg/mL) E. faecalis” value (E. faecalis) was 1 µg/mL (≈ 1170 nM). The “MIC (μg/mL) E. coli” value (E. coli) was >8 µg/mL, the “MIC (μg/mL) C. trachomatis” value (C. trachomatis) was 0.001 µg/mL (≈ 1.17 nM) and the “MIC (μg/mL) S. aureus” value (S. aureus) was 0.12 µg/mL (≈ 140 nM).
